Values quoted from earlier work as cited in US8288116B2, “Methods and compositions for isolating metastatic cancer cells, and use in measuring metastatic potential of a cancer thereof” (The Research Foundation of State University of New York, priority 2000, dated 2012).

Test system: patients with cancer
Conditions: trials in patients with cancer
In the case of `CC1(C)SCCN(S(=O)(=O)c2ccc(Oc3ccncc3)cc2)[C@H]1C(=O)NO` [AG3340], the “anti-metastatic, anti-invasive effects” value is listed as “not produced obvious evidence”. In the case of `CNC(=O)[C@@H](NC(=O)[C@H](CC(C)C)[C@H](O)C(=O)NO)C(C)(C)C` [Marimastat], the “anti-metastatic, anti-invasive effects” value is listed as “not produced obvious evidence”. In the case of angiostatin, the “anti-metastatic, anti-invasive effects” value is given as “not produced obvious evidence”. In the case of endostatin, the “anti-metastatic, anti-invasive effects” value is given as “not produced obvious evidence”.
